Assay results from article PMC6717395 (Drug Design, Development and Therapy, 2019).

Columns and labels:
[1] = biological target: butyrylcholinesterase (BChE) (Homo sapiens, UniProt P06276); assay: Anticholinesterase assay; assay type: biochemical
[2] = DPPH antioxidant assay; conditions: for DPPH % inhibition (mean ± S.E.M): n=3; for DPPH IC50: DPPH radical scavenging
[3] = ABTS antioxidant assay; conditions: for ABTS percent inhibition (mean ± S.E.M): n=3; for ABTS IC50: ABTS radical scavenging
[4] = biological target: acetylcholinesterase (AChE) (Homo sapiens, UniProt P22303); assay: biochemical
Sequence of acetylcholinesterase (AChE) (P22303 32-614, species assumed): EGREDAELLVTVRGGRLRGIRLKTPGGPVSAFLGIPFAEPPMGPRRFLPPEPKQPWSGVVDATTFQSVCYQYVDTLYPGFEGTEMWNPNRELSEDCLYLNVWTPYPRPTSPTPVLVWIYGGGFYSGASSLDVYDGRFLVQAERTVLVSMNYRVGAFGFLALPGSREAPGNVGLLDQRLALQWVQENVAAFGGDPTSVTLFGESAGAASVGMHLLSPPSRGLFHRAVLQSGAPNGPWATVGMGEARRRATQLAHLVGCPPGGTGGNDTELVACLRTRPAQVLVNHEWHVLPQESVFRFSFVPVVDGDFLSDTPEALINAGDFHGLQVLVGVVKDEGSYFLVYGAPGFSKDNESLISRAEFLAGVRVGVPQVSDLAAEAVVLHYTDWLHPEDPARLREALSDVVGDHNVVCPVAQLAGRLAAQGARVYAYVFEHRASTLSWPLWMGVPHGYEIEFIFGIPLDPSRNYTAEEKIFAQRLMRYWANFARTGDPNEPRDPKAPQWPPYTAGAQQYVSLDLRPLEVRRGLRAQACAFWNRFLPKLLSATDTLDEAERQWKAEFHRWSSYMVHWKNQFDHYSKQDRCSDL

[5] = read-out: Percent BChE (mean ± SEM) inhibition

Sequence of butyrylcholinesterase (BChE) (P06276 29-602, species assumed): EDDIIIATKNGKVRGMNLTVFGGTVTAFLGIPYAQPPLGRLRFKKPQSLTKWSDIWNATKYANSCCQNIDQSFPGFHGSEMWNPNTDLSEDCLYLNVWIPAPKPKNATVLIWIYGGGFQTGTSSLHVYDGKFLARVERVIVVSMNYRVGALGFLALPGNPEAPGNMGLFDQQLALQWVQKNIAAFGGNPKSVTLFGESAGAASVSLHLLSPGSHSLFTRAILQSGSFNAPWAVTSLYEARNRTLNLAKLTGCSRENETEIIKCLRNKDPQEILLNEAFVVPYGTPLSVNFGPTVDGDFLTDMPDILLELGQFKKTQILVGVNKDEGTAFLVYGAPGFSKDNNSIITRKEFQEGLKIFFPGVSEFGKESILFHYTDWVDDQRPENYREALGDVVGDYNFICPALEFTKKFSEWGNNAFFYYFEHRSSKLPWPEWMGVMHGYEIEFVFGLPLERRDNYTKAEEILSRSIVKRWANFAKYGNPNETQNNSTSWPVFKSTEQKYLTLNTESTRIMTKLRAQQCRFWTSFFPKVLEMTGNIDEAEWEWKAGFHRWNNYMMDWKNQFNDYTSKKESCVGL

Row | Compound | inhibition at 62.5 µg/mL [1, 5] [%] | DPPH % inhibition (mean ± S.E.M) ([2]; 62.5 μg/mL) [%] | DPPH % inhibition (mean ± S.E.M) ([2]; 125 μg/mL) [%] | DPPH % inhibition (mean ± S.E.M) ([2]; 250 μg/mL) [%] | DPPH % inhibition (mean ± S.E.M) ([2]; 500 μg/mL) [%] | DPPH % inhibition (mean ± S.E.M) ([2]; 1000 μg/mL) [%] | DPPH IC50 [2] [µg/mL] | ABTS percent inhibition (mean ± S.E.M) ([3]; 62.5 μg/mL) [%] | ABTS percent inhibition (mean ± S.E.M) ([3]; 125 μg/mL) [%] | ABTS percent inhibition (mean ± S.E.M) ([3]; 250 μg/mL) [%] | ABTS percent inhibition (mean ± S.E.M) ([3]; 500 μg/mL) [%] | ABTS percent inhibition (mean ± S.E.M) ([3]; 1000 μg/mL) [%] | ABTS IC50 [3] [µg/mL] | other results
1 | COc1ccc2c3c1O[C@H]1C[C@@H](O)C=C[C@@]31CCN(C)C2 [Galanthamine, reference compound] | 53.5 ± 1.69 |  |  |  |  |  |  |  |  |  |  |  |  | 
2 | O=C1O[C@H]([C@@H](O)CO)C(O)=C1O [Ascorbic acid, reference compound] |  | 55.05±1.54 | 65.30±2.05 | 78.89±1.34 | 87.21±0.75 | 94.88±1.63 | 35 | 55.51±1.09 | 64.06±1.15 | 77.64±3.06 | 83.76±1.16 | 93.41±0.73 | 35 | 
3 | O=C(O)CCCCC(=O)O [Compound VIII, Hexanedioic acid] | 40.6 ± 1.06 | 41.17±1.97 | 51.10±2.39 | 63.13±2.17 | 72.84±1.87 | 81.64±2.76 | 118 | 41.70±1.06 | 50.02±1.11 | 62.19±0.90 | 70.10±1.20 | 80.23±1.37 | 125 | IC50 [1]: 848 µM; inhibition at 125 µg/mL [1, 5]: 50.1 ± 2.16%; inhibition at 250 µg/mL [1, 5]: 61.2 ± 2.1%; inhibition at 500 µg/mL [1, 5]: 71.3 ± 1.1%; inhibition at 1000 µg/mL [1, 5]: 78.2 ± 1.31%; IC50 [4]: 835 µM; inhibition at 62.5 µg/mL ([4]; read-out: Percent AChE (mean ± SEM) inhibition, 62.5 μg/mL, n=3): 41.7 ± 3.01%; inhibition at 125 µg/mL ([4]; read-out: Percent AChE (mean ± SEM) inhibition, 125 μg/mL, n=3): 50.3 ± 2.1%; inhibition at 250 µg/mL ([4]; read-out: Percent AChE (mean ± SEM) inhibition, 250 μg/mL, n=3): 62.1 ± 2.41%; inhibition at 500 µg/mL ([4]; read-out: Percent AChE (mean ± SEM) inhibition, 500 μg/mL, n=3): 71.2 ± 2.37%; inhibition at 1000 µg/mL ([4]; read-out: Percent AChE (mean ± SEM) inhibition, 1000 μg/mL, n=3): 79.6 ± 2.1%
